Experimental data taken from patent publication US7427620B2, “Azole derivative useful as antifungal agents with reduced interaction with metabolic cytochromes” (Italfarmaco SPA, priority 2003, dated 2008).
≈ marks a conversion by molar mass, not a printed value. Read-outs that look alike come from different tables or passages of the source.

Columns and labels:
[1] = target: T1, CYP2C9 (Homo sapiens, UniProt P11712); experiment: Inhibition of human cytochromes, fluorescent substrates; type: in vitro ADME; details: isoenzyme (Gentest), 37° C.
T1 construct: purchased Gentest
Experimental: (§1) Experiment B: Inhibition of Human Cytochromes by Compounds of the Formula (I)
(§2) Inhibition of the enzymatic activity of the most significant isoforms of human cytochromes by the compounds of the formula (I) was measured by using specific substrates which become fluorescent as a result of the metabolic action of a particular cytochrome isoform. The individual isoenzymes (Gentest) and the respective substrates were incubated in 96 well plates in buffer containing […] at 37° C. in the presence or absence of the compound under investigation. […] The degree of inhibition of each individual isoenzyme by known inhibitors was also assessed as a positive control.

[2] = target: T2, CYP2C19 (Homo sapiens, UniProt P33261); experiment: as above; type: in vitro ADME; details: isoenzyme (Gentest), 37° C.
T2 construct: purchased Gentest
Experimental: as §1, §2

[3] = target: T3, CYP3A4 (Homo sapiens, UniProt P08684); experiment: as above; type: in vitro ADME; details: isoenzyme (Gentest), 37° C.
T3 construct: purchased Gentest
Experimental: as §1
The individual isoenzymes (Gentest) and the respective substrates were incubated in 96 well plates in buffer containing […] at 37° C. in the presence or absence of the compound under investigation. […] The degree of inhibition of each individual isoenzyme by known inhibitors was also assessed as a positive control.

[4] = tested on: Aspergillus fumigatus; experiment: Antifungal activity, liquid phase microdilution (NCCLS M27/M38-P); type: cell-based; parameters: IC50 (minimum concentration to bring about 50% inhibition): unit not given here; details: for IC50: Aspergillus fumigatus
Experimental: (§3) Experiment A: Antifungal Activity of Compounds of the Formula (I)
(§4) The antifungal activity of the compounds of the formula (I) was determined using various strains of yeast and filamentous fungi. […] Table no.

[5] = tested on: Candida albicans; experiment: as above; type: cell-based
Experimental: as §3, §4

[6] = target: T4, CYP2D6 (Homo sapiens, UniProt P10635); experiment: Inhibition of human cytochromes, fluorescent substrates; type: in vitro ADME; details: isoenzyme (Gentest), 37° C.
T4 construct: purchased Gentest
Experimental: as §1, §2

[7] = target: T5, CYP1A2 (Homo sapiens, UniProt P05177); experiment: as above; type: in vitro ADME; details: isoenzyme (Gentest), 37° C.
T5 construct: purchased Gentest
T5 sequence (P05177 1-516): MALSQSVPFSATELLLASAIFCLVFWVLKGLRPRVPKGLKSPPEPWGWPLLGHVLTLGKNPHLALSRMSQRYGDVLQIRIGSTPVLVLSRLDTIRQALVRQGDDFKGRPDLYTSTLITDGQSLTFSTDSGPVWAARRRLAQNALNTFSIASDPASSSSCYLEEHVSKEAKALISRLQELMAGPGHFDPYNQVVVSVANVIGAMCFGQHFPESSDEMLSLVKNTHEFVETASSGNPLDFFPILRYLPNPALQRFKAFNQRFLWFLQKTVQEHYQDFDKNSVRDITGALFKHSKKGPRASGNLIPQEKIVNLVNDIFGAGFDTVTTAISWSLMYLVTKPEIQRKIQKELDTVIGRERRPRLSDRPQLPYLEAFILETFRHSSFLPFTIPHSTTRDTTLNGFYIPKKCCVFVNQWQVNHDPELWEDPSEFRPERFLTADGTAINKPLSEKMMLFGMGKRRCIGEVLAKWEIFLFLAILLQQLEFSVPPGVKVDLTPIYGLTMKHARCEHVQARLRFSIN
Experimental: as §1, §2

[8] = tested on: Candida parapsilosis; experiment: Antifungal activity, liquid phase microdilution (NCCLS M27/M38-P); type: cell-based; details: for IC50 (minimum concentration to bring about 50% inhibition): Candida parapsilosis strain ATCC22019
Experimental: as §3, §4

[9] = tested on: Candida glabrata; experiment: as above; type: cell-based; details: for IC50 (minimum concentration to bring about 50% inhibition): Candida glabrata strain 02-0902
Experimental: as §3, §4

[10] = tested on: Candida albicans; experiment: Mouse model of systemic candidiasis, survival; type: in vivo, CD1 mice; details: 50 mg/kg/day orally (25 mg/kg twice daily) for 10 days
Experimental: Experiment C: Study of the Efficacy of Compounds of the Formula (I) in a Mouse Model of Systemic Candidiasis.
The C. albicans isolate was cultured for 24 h in yeast dextrose broth. The blastospores were recovered by centrifugation, repeatedly washed in sterile saline solution and the inoculum adjusted to the desired concentration. The inoculum was verified by a subsequent count of CFU/ml on Sabouraud plates.
The mice were then inoculated intravenously (0.2 ml/mouse).
24 hours after inoculation with C. albicans, the animals were randomised into the following treatment groups (10 mice/group): • 1. […] Compound under investigation: 50 mg/kg/day (two 25 mg/kg treatments twice daily at 12 hour intervals) • 3. Compound under investigation; 10 mg/kg/day (two 5 mg/kg treatments twice daily at 12 hour intervals) • 4. Control (placebo)
The compounds were administered orally (suspension in PEG 200, 0.2 ml/mouse) for 10 consecutive days and the animals were observed until day 30. The survival curves between the various treatment groups and between these groups and the control group were evaluated using the Kaplan-Meier method.

[11] = Aspergillus fumigatus strain 34
[12] = Aspergillus fumigatus strain 99-2135

T3 sequence (P08684 whole entry): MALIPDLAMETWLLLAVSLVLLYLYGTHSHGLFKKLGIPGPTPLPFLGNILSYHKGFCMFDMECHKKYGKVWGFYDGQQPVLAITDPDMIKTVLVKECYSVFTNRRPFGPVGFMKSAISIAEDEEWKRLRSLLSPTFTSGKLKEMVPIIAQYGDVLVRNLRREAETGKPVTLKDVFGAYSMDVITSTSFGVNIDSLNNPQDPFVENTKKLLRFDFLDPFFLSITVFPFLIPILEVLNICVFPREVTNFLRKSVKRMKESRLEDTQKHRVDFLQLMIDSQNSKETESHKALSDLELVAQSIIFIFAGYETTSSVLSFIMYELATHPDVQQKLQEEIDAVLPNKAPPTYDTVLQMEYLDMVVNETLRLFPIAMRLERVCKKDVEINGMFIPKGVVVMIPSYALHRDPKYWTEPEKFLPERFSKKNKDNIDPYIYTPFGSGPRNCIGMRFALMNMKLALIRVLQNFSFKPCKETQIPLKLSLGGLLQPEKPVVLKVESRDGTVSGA
T4 sequence (P10635 whole entry): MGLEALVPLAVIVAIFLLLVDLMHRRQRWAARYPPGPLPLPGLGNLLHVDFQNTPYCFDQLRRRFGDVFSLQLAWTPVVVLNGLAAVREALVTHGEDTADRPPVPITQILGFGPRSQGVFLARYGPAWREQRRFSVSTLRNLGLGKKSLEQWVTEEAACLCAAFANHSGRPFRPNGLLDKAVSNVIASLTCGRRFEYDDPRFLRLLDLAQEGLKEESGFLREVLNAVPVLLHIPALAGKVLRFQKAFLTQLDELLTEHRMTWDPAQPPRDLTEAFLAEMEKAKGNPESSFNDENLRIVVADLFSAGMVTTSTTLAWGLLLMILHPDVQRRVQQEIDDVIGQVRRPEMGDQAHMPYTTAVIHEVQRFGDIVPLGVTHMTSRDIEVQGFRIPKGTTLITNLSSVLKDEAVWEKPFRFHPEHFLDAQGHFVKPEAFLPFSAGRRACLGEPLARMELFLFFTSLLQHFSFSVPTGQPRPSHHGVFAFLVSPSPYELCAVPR
T2 sequence (P33261 whole entry): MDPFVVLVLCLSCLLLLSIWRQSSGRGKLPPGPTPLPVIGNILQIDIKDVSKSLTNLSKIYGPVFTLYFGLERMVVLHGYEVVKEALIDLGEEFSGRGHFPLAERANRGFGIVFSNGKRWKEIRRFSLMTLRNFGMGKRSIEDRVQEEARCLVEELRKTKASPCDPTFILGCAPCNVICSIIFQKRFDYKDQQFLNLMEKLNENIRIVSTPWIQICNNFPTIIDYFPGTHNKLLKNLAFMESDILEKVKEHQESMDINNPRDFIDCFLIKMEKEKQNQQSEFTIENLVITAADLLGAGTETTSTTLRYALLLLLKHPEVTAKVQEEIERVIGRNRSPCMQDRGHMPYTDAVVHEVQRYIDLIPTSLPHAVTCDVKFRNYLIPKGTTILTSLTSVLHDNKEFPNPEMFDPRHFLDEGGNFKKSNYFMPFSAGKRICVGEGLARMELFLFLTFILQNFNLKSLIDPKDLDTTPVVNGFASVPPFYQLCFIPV
T1 sequence (P11712 whole entry): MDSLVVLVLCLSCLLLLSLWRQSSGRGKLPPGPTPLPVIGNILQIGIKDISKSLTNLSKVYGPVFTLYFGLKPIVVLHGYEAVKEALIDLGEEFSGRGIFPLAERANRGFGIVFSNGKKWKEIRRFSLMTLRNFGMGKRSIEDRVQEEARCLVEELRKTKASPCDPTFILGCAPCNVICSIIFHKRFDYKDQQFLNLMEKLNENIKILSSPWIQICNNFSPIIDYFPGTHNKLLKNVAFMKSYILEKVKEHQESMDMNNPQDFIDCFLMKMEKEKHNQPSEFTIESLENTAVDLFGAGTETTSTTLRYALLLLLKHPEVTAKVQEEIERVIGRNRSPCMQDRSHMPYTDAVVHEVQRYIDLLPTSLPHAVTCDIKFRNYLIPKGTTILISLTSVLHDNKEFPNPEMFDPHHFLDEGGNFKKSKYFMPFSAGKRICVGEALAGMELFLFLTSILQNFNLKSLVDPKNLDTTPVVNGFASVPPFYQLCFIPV

| Compound | IC50 [1] [µM] | IC50 [2] [µM] | IC50 [3] [nM] | IC50 (minimum concentration to bring about 50% inhibition) ([5]; Candida albicans strain 21) [mg/mL] | IC50 (minimum concentration to bring about 50% inhibition) [4, 12] | IC50 [6] [µM] | IC50 [7] [µM] | IC50 (minimum concentration to bring about 50% inhibition) [8] | IC50 (minimum concentration to bring about 50% inhibition) ([5]; Candida albicans strain gen-45) | IC50 (minimum concentration to bring about 50% inhibition) [9] [mg/mL] | further results |
| --- | --- | --- | --- | --- | --- | --- | --- | --- | --- | --- | --- |
| cis(±)-4-{4-[4-{4-[2-(thiazol-2-yl)-2-(1H-1,2,4-triazol-1-yl-methyl)-1,3-dioxolan-4-yl-methoxy]phenyl}-1-piperazinyl]-phenyl}-2-(1-(R,S)methylpropyl)-2,4-dihydro-3H-1,2,4-triazol-3-one [Example 12] | 18.2 ± 0.3 | 10.9 ± 0.4 | 300 ± 100 |  |  |  |  |  |  |  |  |
| CCC(C)n1ncn(-c2ccc(N3CCN(c4ccc(OCC5COC(Cn6cncn6)(c6cccc[n+]6[O-])O5)cc4)CC3)cc2)c1=O (racemic) [Example 17, cis(±)-4-{4-[4-{4-[2-(1-oxy-pyridin-2-yl)-2-(1H-1,2,4-triazol-1-yl-methyl)-1,3dioxolan-4-yl-methoxy]phenyl}piperazin-1-yl]-phenyl}-2-[(1,R/S)-1-methylpropyl]-2,4-dihydro-3H-1,2,4-triazol-3-one] |  |  |  | 38 (≈ 58100 µM) |  |  |  |  |  |  | IC50 (minimum concentration to bring about 50% inhibition) [4, 11]: >64 |
| cis(±)-4-{4-[4-{4-[2-(pyridin-3-yl)-2-(1H-1,2,4-triazol-1-yl-methyl)-1,3-dioxolan-4-yl-methoxy]phenyl}-1-piperazinyl]-phenyl}-2-(1-(R,S)methylpropyl)-2,4-dihydro-3H-1,2,4-triazol-3-one [Example 11] | 64.2 ± 6.2 | 31.5 ± 3.9 | 700 ± 100 |  |  |  |  |  |  |  |  |
| cis(±)-4-{4-[4-{4-[2-(pyridin-4-yl)-2-(1H-1,2,4-triazol-1-yl-methyl)-1,3-dioxolan-4-yl-methoxy]phenyl}-1-piperazinyl]-phenyl}-2-(1-(R,S)methylpropyl)-2,4-dihydro-3H-1,2,4-triazol-3-one [Example 10] |  |  |  | 39 |  |  |  |  |  |  | IC50 (minimum concentration to bring about 50% inhibition) [4, 11]: 8 |
| CC[C@@H](C)n1ncn(-c2ccc(N3CCN(c4ccc(OC[C@H]5CO[C@@](Cn6cncn6)(c6ccccn6)O5)cc4)CC3)cc2)c1=O (relative stereo) [Example 16, cis(+)-4-{4-[4-{4-[2-(pyridin-2-yl)-2-(1H-1,2,4-triazol-1-yl-methyl)-1,3-dioxolan-4-yl-methoxy]phenyl}piperazin-1-yl]-phenyl}-2-[(1,R)-1-methylpropyl]-2,4-dihydro-3H-1,2,4-triazol-3-one] | 37.5 ± 6.8 | 43.1 ± 15 | 290 ± 10 |  | 0.25 | > 100 | > 100 | 0.06 | ≦0.03 mg/ml | 0.5 (≈ 784 µM) |  |
| CCC(C)n1ncn(-c2ccc(N3CCN(c4ccc(OCC5COC(Cn6cncn6)(c6cc[n+]([O-])cc6)O5)cc4)CC3)cc2)c1=O (racemic) [Example 18, cis(±)-4-{4-[4-{4-[2-(1-oxy-pyridin-4-yl)-2-(1H-1,2,4-triazol-1-yl-methyl)-1,3-dioxolan-4-yl-methoxy]phenyl}piperazin-1-yl]phenyl}-2-[(1,R/S)-1-methylpropyl]-2,4-dihydro-3H-1,2,4-triazol-3-one] |  |  |  | 78 (≈ 119000 µM) |  |  |  |  |  |  |  |
| CC[C@H](C)n1ncn(-c2ccc(N3CCN(c4ccc(OC[C@H]5CO[C@@](Cn6cncn6)(c6ccccn6)O5)cc4)CC3)cc2)c1=O (relative stereo) [Example 13, cis(−)-4-{4-[4-{4-[2-(pyridin-2-yl)-2-(1H-1,2,4-triazol-1-yl-methyl)-1,3-dioxolan-4-yl-methoxy]phenyl}piperazin-1-yl]-phenyl}-2-[(1,S)-1-methylpropyl]-2,4-dihydro-3H-1,2,4-triazol-3-one] | 27.2 ± 6.7 | 28.4 ± 8.8 | 460 ± 370 |  | 0.25 | > 100 | > 100 | ≦0.03 mg/ml | ≦0.03 mg/ml | 1 (≈ 1570 µM) |  |
| CC[C@@H](C)n1ncn(-c2ccc(N3CCN(c4ccc(OC[C@H]5CO[C@@](Cn6cncn6)(c6ccccn6)O5)cc4)CC3)cc2)c1=O (relative stereo) [Example 15, cis(−)-4-{4-[4-{4-[2-(pyridin-2-yl)-2-(1H-1,2,4-triazol-1-yl-methyl)-1,3-dioxolan-4-yl-methoxy]phenyl}piperazin-1-yl]-phenyl}-2-[(1,R)-1-methylpropyl]-2,4-dihydro-3H-1,2,4-triazol-3-one] | 26.1 ± 1.3 | 25.5 ± 4.3 | 410 ± 130 |  | 0.12 | 84 ± 39.4 | > 100 | ≦0.03 mg/ml | ≦0.03 mg/ml | 0.25 (≈ 392 µM) |  |
| CC[C@H](C)n1ncn(-c2ccc(N3CCN(c4ccc(OC[C@H]5CO[C@@](Cn6cncn6)(c6ccccn6)O5)cc4)CC3)cc2)c1=O (relative stereo) [Example 14, cis(+)-4-{4-[4-{4-[2-(pyridin-2-yl)-2-(1H-1,2,4-triazol-1-yl-methyl)-1,3-dioxolan-4-yl-methoxy]phenyl}piperazin-1-yl]-phenyl}-2-[(1,S)-1-methylpropyl]-2,4-dihydro-3H-1,2,4-triazol-3-one] | 40 ± 11.2 | 27.9 ± 0.8 | 190 ± 80 |  | 0.5 | > 100 | > 100 | 0.06 | ≦0.03 mg/ml | 2 (≈ 3140 µM) |  |
| CCC(C)n1ncn(-c2ccc(N3CCN(c4ccc(OCC5COC(Cn6cncn6)(c6ccc(Cl)cc6Cl)O5)cc4)CC3)cc2)c1=O (stereo not shown) [Itraconazole, reference compound] | 1.6 ± 0.2 | 0.2 ± 0.06 |  |  |  | > 100 | > 100 |  |  |  | IC50 ([4]; read-out: IC50 (minimum concentration to bring about 50% inhibition), Aspergillus fumigatus strain 34): 1000 µg/mL (≈ 1420 µM); IC50 ([4]; read-out: IC50 (minimum concentration to bring about 50% inhibition), Aspergillus fumigatus strain 99-2135): 250 µg/mL (≈ 354 µM); Surviving mice 21 days after infection [10]: 0%; Average survival (days) ± S.D. ([10]; observed until day 30): 9.2 ± 1.1 days; IC50 ([8]; Lodderomyces parapsilosis, ATCC22019, read-out: IC50 (minimum concentration to bring about 50% inhibition)): 120 µg/mL (≈ 170 µM); IC50 ([5]; Candida albicans, read-out: IC50 (minimum concentration to bring about 50% inhibition)): ≤ 30 µg/mL; IC50 ([9]; Nakaseomyces glabratus, read-out: IC50 (minimum concentration to bring about 50% inhibition)): 500 µg/mL (≈ 709 µM) |
